# Reference: patent US11844795B2, “Combination therapy for cancer treatment” (Ipsen Biopharm Ltd., priority 2015, dated 2023)
# Read-outs that look alike come from different tables or passages of the source.
# Experiments:
# PAR = details: Table 2B, unit inferred; cited from earlier work
# HCC1954 = test: Cell survival (CellTiter-Glo) after SN-38 and/or PARP inhibitor; format: cell-based; details: for Maximum Kill Percent / IC50 log10 (μM): HCC1954, single agent
# Method: (§1) Cells were plated at 1000 cells/well and then incubated for 24 hours. […] The plates were then allowed to incubate for 72 hours period. After the 72 hour incubation period the media was removed and cell viability was determined using the CellTiter-Glo® cell viability assay (Promega, Madison Wis.) according to the product instructions.
# HCC38 = test: as above; format: cell-based; details: for IC50: Homo sapiens
# Method: as §1
# HCC1187 = test: as above; format: cell-based; details: for IC50: Homo sapiens
# Method: as §1
# BT20 = test: as above; format: cell-based; details: for IC50: Homo sapiens
# Method: as §1
# SUM159PT = test: as above; format: cell-based; details: for IC50: Homo sapiens, SUM-159-PT
# Method: as §1
# PARG = PARG (Homo sapiens, UniProt Q86W56); details: cited from earlier work
# PARP-DNA complexes = details: compared with veliparib; cited from earlier work
# BT549 = test: Cell survival (CellTiter-Glo) after SN-38 and/or PARP inhibitor; format: cell-based; details: BT549, single agent
# Method: as §1
# HCC1806 = test: as above; format: cell-based; details: Exp. 1, single agent
# Method: as §1
# HT-29 = test: In vitro SN-38 effect on cell line (GI50); format: cell-based; details: HT-29, in vitro
# human plasma proteins = details: cited from earlier work
# SKBR3 = test: Cell survival (CellTiter-Glo) after SN-38 and/or PARP inhibitor; format: cell-based; details: Exp. 4, single agent
# Method: as §1
# SUM149PT = test: as above; format: cell-based
# Method: as §1
# HCC70 = test: as above; format: cell-based; details: Exp. 2, single agent
# Method: as §1
# [1] = test system: C33A cervical cancer xenograft; test: C33A cervical cancer xenograft model; details: liver, spleen, colon, plasma versus tumors
# [2] = test system: HT-29 colorectal cancer (CRC) tumor xenograft; test: Tumor SN-38 and tumor response in HT-29 xenograft-bearing mice; format: in vivo
# Method: The duration of tumor exposure to the topoisomerase 1 inhibitor SN-38 above a threshold minimum concentration (e.g., 120 nM) correlated with antitumor activity of the liposomal irinotecan. […] For example, FIG. 13B depicts tumor content of SN-38 in multiple murine cervical cancer models. […] Levels of SN-38 of 120 nM were identified as the SN-38 tumor concentration required to yield tumor response.
# cancer cells = test: Active range based on XTC008
# Sequence of PARG (Q86W56 whole entry, species assumed): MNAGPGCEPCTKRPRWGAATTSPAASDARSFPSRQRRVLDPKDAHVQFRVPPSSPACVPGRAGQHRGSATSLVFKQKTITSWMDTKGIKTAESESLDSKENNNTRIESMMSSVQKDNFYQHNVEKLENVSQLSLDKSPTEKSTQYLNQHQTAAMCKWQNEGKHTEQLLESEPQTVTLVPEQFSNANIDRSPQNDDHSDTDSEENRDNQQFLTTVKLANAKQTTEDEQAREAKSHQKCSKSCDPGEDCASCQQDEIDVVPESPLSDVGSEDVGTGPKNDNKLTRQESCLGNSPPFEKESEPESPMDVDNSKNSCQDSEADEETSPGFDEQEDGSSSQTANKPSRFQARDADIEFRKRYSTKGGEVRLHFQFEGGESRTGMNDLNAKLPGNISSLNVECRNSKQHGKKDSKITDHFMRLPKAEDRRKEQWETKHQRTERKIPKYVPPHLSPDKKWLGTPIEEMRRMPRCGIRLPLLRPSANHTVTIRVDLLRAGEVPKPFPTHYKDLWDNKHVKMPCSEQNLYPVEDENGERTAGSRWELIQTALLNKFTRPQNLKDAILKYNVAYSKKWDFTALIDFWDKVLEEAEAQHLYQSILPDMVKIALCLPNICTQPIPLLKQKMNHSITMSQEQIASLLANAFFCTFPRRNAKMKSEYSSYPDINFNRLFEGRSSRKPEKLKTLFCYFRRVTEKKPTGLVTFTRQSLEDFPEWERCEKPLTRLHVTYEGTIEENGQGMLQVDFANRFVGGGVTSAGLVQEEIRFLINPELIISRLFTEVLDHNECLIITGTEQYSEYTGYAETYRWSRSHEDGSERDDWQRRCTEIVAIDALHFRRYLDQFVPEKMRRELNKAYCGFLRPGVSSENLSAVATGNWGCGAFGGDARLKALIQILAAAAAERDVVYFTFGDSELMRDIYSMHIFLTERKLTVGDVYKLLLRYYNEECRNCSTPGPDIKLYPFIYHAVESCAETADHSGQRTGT
structure (smiles),measurement,setting,value
Cn1ncnc1[C@H]1c2n[nH]c(=O)c3cc(F)cc(c23)N[C@@H]1c1ccc(F)cc1 [Talazoparib],EC50,PAR,0.0025 µM
same,Maximum Kill Percent,HCC1954; Exp. 4,100%
same,IC50,"HCC1954; Homo sapiens, HCC1954, read-out: IC50 log10 (μM) (converted)",4370 µM
same,Maximum Kill Percent,"HCC38; HCC38, Exp. 4, single agent",92%
same,IC50,"HCC38; HCC38, read-out: IC50 log10 (μM) (converted)",0.0589 µM
same,IC50,"HCC1187; HCC1187, read-out: IC50 log10 (μM) (converted)",191 µM
same,Maximum Kill Percent,"BT20; BT20, Exp. 4, single agent",100%
same,IC50,"BT20; BT-20, read-out: IC50 log10 (μM) (converted)",28.2 µM
same,IC50,SUM159PT; read-out: IC50 log10 (μM) (converted),0.0933 µM
same,Maximum Kill Percent,"SUM159PT; SUM159PT, Exp. 4, single agent",94%
same,inhibition of PARG,PARG,does not inhibit
NC(=O)c1cccc2cn(-c3ccc([C@@H]4CCCNC4)cc3)nc12 [Niraparib],potency at PARP trapping,PARP-DNA complexes,much more potent at PARP trapping than veliparib
same,Maximum Kill Percent,"HCC38; HCC38, Exp. 1, single agent",100%
same,IC50,"HCC38; HCC38, Exp. 1, single agent, read-out: IC50 log10 (converted)",17 µM
same,Maximum Kill Percent,"HCC1187; HCC1187, Exp. 1, single agent",98%
same,IC50,"HCC1187; HCC1187, Exp. 1, single agent, read-out: IC50 log10 (converted)",129 µM
same,Maximum Kill Percent,BT549; Exp. 1,100%
same,IC50,"BT549; Homo sapiens, BT-549, Exp. 1, read-out: IC50 log10 (converted)",107 µM
same,Maximum Kill Percent,HCC1806,100%
same,IC50,"HCC1806; Homo sapiens, read-out: IC50 log10 (converted)",18.6 µM
same,Maximum Kill Percent,"BT20; BT20, Exp. 1, single agent",100%
same,IC50,"BT20; BT-20, BT20, Exp. 1, single agent, read-out: IC50 log10 (converted)",138 µM
same,IC50,"SUM159PT; SUM159PT, Exp. 1, single agent, read-out: IC50 log10 (converted)",2.24 µM
same,Maximum Kill Percent,"SUM159PT; SUM159PT, Exp. 1, single agent",97%
CCc1c2c(nc3ccc(O)cc13)-c1cc3c(c(=O)n1C2)COC(=O)[C@]3(O)CC [SN-38],GI50,HT-29,~0.06 µM
same,plasma protein binding,human plasma proteins,approximately 95%
same,Estimated tumor range,Estimated tumor range; (398),3 to 163 nM
same,Estimated tumor range,Estimated tumor range; IRI,IRI < 200 nM
same,IC50 log10 (μM),HCC1954; Exp. 3,−0.97 log10 (μM)
same,Maximum Kill Percent,HCC1954; Exp. 3,94%
same,IC50 log10 (μM),HCC1954; Exp. 4,−0.65 log10 (μM)
same,Maximum Kill Percent,HCC1954; Exp. 4,100%
same,IC50 log10 (μM),"HCC38; HCC38, Exp. 1, single agent",−2.80 log10 (μM)
same,Maximum Kill Percent,"HCC38; HCC38, Exp. 1, single agent",96%
same,IC50 log10 (μM),"HCC38; HCC38, Exp. 3, single agent",−2.89 log10 (μM)
same,Maximum Kill Percent,"HCC38; HCC38, Exp. 3, single agent",92%
same,IC50 log10 (μM),"HCC38; HCC38, Exp. 4, single agent",−2.75 log10 (μM)
same,Maximum Kill Percent,"HCC38; HCC38, Exp. 4, single agent",92%
same,IC50 log10 (μM),SKBR3,−1.38 log10 (μM)
same,Maximum Kill Percent,SKBR3,88%
same,IC50 log10 (μM),"HCC1187; HCC1187, Exp. 1, single agent",−0.68 log10 (μM)
same,Maximum Kill Percent,"HCC1187; HCC1187, Exp. 1, single agent",90%
same,IC50 log10 (μM),"HCC1187; HCC1187, Exp. 2, single agent",−0.64 log10 (μM)
same,Maximum Kill Percent,"HCC1187; HCC1187, Exp. 2, single agent",100%
same,IC50 log10 (μM),"HCC1187; HCC1187, Exp. 4, single agent",−0.98 log10 (μM)
same,Maximum Kill Percent,"HCC1187; HCC1187, Exp. 4, single agent",88%
same,IC50 log10 (μM),BT549; Exp. 1,−0.10 log10 (μM)
same,Maximum Kill Percent,BT549; Exp. 1,95%
same,IC50 log10 (μM),BT549; Exp. 2,−0.04 log10 (μM)
same,Maximum Kill Percent,BT549; Exp. 2,93%
same,IC50 log10 (μM),BT549; Exp. 3,−0.05 log10 (μM)
same,Maximum Kill Percent,BT549; Exp. 3,94%
same,IC50 log10 (μM),"SUM149PT; Exp. 2, single agent",0.24 log10 (μM)
same,Maximum Kill Percent,"SUM149PT; Exp. 2, single agent",96%
same,IC50 log10 (μM),"SUM149PT; Exp. 3, single agent",0.27 log10 (μM)
same,Maximum Kill Percent,"SUM149PT; Exp. 3, single agent",95%
same,IC50 log10 (μM),HCC1806,−2.08 log10 (μM)
same,Maximum Kill Percent,HCC1806,93%
same,IC50 log10 (μM),"BT20; BT20, Exp. 1, single agent",−0.18 log10 (μM)
same,Maximum Kill Percent,"BT20; BT20, Exp. 1, single agent",100%
same,IC50 log10 (μM),"BT20; BT20, Exp. 2, single agent",−0.69 log10 (μM)
same,Maximum Kill Percent,"BT20; BT20, Exp. 2, single agent",100%
same,IC50 log10 (μM),"BT20; BT20, Exp. 3, single agent",−0.37 log10 (μM)
same,Maximum Kill Percent,"BT20; BT20, Exp. 3, single agent",100%
same,IC50 log10 (μM),"BT20; BT20, Exp. 4, single agent",−0.24 log10 (μM)
same,Maximum Kill Percent,"BT20; BT20, Exp. 4, single agent",100%
same,IC50 log10 (μM),"SUM159PT; SUM159PT, Exp. 1, single agent",−2.35 log10 (μM)
same,Maximum Kill Percent,"SUM159PT; SUM159PT, Exp. 1, single agent",97%
same,IC50 log10 (μM),"SUM159PT; SUM159PT, Exp. 2, single agent",−2.39 log10 (μM)
same,Maximum Kill Percent,"SUM159PT; SUM159PT, Exp. 2, single agent",97%
same,IC50 log10 (μM),"SUM159PT; SUM159PT, Exp. 3, single agent",−2.66 log10 (μM)
same,Maximum Kill Percent,"SUM159PT; SUM159PT, Exp. 3, single agent",99%
same,IC50 log10 (μM),"SUM159PT; SUM159PT, Exp. 4, single agent",−2.33 log10 (μM)
same,Maximum Kill Percent,"SUM159PT; SUM159PT, Exp. 4, single agent",96%
same,IC50 log10 (μM),HCC70,−0.07 log10 (μM)
same,Maximum Kill Percent,HCC70,97%
same,differential tissue levels at 24 and 72 hours,[1],"cleared faster from the liver, spleen, colon, and plasma, than from tumors"
same,SN-38 tumor concentration required to yield tumor response,[2],120 nM
same,Active Range based on XTC008,cancer cells,1 to 50 nM
